Our source for the IC50 values is patent US8952162B2, “Triazolopyridines as phosphodiesterase inhibitors for treatment of dermal diseases” (Leo Pharma A/S, priority 2008, dated 2015).

The structures appear in SMILES notation.

Chain of Human recombinant PDE4 (Genbank accession no NM—006203) (Q08499 1-673 isoform Q08499-2): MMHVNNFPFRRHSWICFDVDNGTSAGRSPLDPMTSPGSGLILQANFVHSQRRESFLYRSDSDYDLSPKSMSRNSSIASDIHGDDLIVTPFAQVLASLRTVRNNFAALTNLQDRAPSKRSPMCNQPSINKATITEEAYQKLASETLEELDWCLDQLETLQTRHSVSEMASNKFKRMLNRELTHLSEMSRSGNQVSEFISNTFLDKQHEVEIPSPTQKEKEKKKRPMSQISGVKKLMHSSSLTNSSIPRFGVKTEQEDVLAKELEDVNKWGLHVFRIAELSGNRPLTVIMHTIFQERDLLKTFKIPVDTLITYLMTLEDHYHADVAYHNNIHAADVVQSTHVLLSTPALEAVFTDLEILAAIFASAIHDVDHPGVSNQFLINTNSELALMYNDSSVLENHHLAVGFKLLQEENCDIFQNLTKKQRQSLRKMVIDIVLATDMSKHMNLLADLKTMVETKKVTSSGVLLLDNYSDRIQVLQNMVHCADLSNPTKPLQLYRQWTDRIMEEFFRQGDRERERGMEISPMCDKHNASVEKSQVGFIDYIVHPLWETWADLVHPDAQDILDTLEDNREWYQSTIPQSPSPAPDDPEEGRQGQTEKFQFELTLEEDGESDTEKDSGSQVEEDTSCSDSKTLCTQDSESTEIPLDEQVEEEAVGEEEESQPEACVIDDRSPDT

The test concerns the target Human recombinant PDE4 (Genbank accession no NM—006203) (Homo sapiens, UniProt Q08499). As to the kind of experiment: PDE4 assay (SPA, cAMP cleavage). In kind it is biochemical. Particulars: Example 53; PDE4 assay as in example 52; read-out: PDE4 IC50 range. The method, then:
At the end of the incubation, the cleavage of the substrate was evaluated by the binding of the AMP product to SPA beads, which generate chemoluminescence when bound to the radioactive tracer. The AMP product inhibited the binding of the radioactive tracer to the beads, and the luminescent signal was competed.
Regarding `COc1ccc(-c2cccc(C#N)c2)n2nc(C3(C(=O)NCc4ccccc4)CC3)nc12` [Compound 197, 1-[5-(3-Cyano-phenyl)-8-methoxyl-[1,2,4]triazolo[1,5-a]pyridin-2-yl]-cyclopropanecarboxylic acid benzylamide], the IC50 (usually the concentration needed to halve the response being measured) is under 0.5 µM. In the case of `COc1ccc(-c2cccc(C#N)c2)n2nc(C3(C(=O)NCCS(N)(=O)=O)CC3)nc12` [Compound 198, 1-[5-(3-Cyano-phenyl)-8-methoxyl-[1,2,4]triazolo[1,5-a]pyridin-2-yl]-cyclopropanecarboxylic acid (2-sulfamoyl-ethyl)-amide], the IC50 was under 0.5 µM. Turning to `COc1ccc(-c2cccc(C#N)c2)n2nc(C3(C(=O)NCCS(C)(=O)=O)CC3)nc12` [Compound 199, 1-[5-(3-Cyano-phenyl)-8-methoxy-[1,2,4]triazolo[1,5-a]pyridin-2-yl]-cyclopropanecarboxylic acid (2-methanesulfonyl-ethyl)-amide], the IC50 is under 0.5 µM. In the case of `COc1ccc(-c2cccc(C#N)c2)n2nc(C3(C(=O)N4CCCC4)CC3)nc12` [Compound 200, 3-{8-Methoxy-2-[1-(pyrrolidine-1-carbonyl)-cyclopropyl]-[1,2,4]triazolo[1,5-a]pyridin-5-yl}-benzonitrile], the IC50 is 0.5 to 1 µM. Then `C=C(C)C(=O)OCCNC(=O)C1(c2nc3c(OC)ccc(-c4cccc(C#N)c4)n3n2)CC1` [Compound 201, 2-Methyl-acrylic acid 2-({1-[5-(3-cyano-phenyl)-8-methoxy-[1,2,4]triazolo[1,5-a]pyridin-2-yl]-cyclopropanecarbonyl}-amino)-ethyl ester], with under 0.5 µM; and `COCCNC(=O)C1(c2nc3c(OC)ccc(-c4cccc(C#N)c4)n3n2)CC1` [Compound 202, 1-[5-(3-Cyano-phenyl)-8-methoxy-[1,2,4]triazolo[1,5-a]pyridin-2-yl]-cyclopropanecarboxylic acid (2-methoxy-ethyl)-amide], with under 0.5 µM. Then `COc1ccc(-c2ccc(C#N)cc2)n2nc(C3(C(=O)NCc4cccnc4)CC3)nc12` [Compound 203, 1-[5-(4-Cyano-phenyl)-8-methoxy-[1,2,4]triazolo[1,5-a]pyridin-2-yl]-cyclopropanecarboxylic acid (pyridin-3-ylmethyl)-amide], with under 0.5 µM. On to `COc1ccc(-c2ccc(C#N)cc2)n2nc(C3(C(=O)N4CCN(C)CC4)CC3)nc12` [Compound 204, 4-{8-Methoxy-2-[1-(4-methyl-piperazine-1-carbonyl)-cyclopropyl]-[1,2,4]triazolo[1,5-a]pyridin-5-yl}-benzonitrile], for which the IC50 was over 1 µM.

For the compound `COc1ccc(-c2ccc(C#N)cc2)n2nc(C3(C(=O)N4CCOCC4)CC3)nc12` [Compound 205, 4-{8-Methoxy-2-[1-(morpholine-4-carbonyl)-cyclopropyl]-[1,2,4]triazolo[1,5-a]pyridin-5-yl}-benzonitrile], the IC50 was over 1 µM.

Take `COc1ccc(-c2ccc(C#N)cc2)n2nc(C3(C(=O)NCc4ccccc4)CC3)nc12` [Compound 206, 1-[5-(4-Cyano-phenyl)-8-methoxy-[1,2,4]triazolo[1,5-a]pyridin-2-yl]-cyclopropanecarboxylic acid benzylamide]: the IC50 was under 0.5 µM. With `COc1ccc(-c2ccc(C#N)cc2)n2nc(C3(C(=O)NCCS(N)(=O)=O)CC3)nc12` [Compound 207, 1-[5-(4-Cyano-phenyl)-8-methoxy-[1,2,4]triazolo[1,5-a]pyridin-2-yl]-cyclopropanecarboxylic acid (2-sulfamoyl-ethyl)-amide] the figure was under 0.5 µM; with `COc1ccc(-c2ccc(C#N)cc2)n2nc(C3(C(=O)NCCS(C)(=O)=O)CC3)nc12` [Compound 208, 1-[5-(4-Cyano-phenyl)-8-methoxy-[1,2,4]triazolo[1,5-a]pyridin-2-yl]-cyclopropanecarboxylic acid (2-methanesulfonyl-ethyl)-amide], under 0.5 µM. As to `COc1ccc(-c2ccc(C#N)cc2)n2nc(C3(C(=O)NC(C)C)CC3)nc12` [Compound 209, 1-[5-(4-Cyano-phenyl)-8-methoxy-[1,2,4]triazolo[1,5-a]pyridin-2-yl]-cyclopropanecarboxylic acid isopropylamide], the IC50 is under 0.5 µM. For `CNC(=O)C1(c2nc3c(OC)ccc(-c4ccc(C#N)cc4)n3n2)CC1` [Compound 210, 1-[5-(4-Cyano-phenyl)-8-methoxy-[1,2,4]triazolo[1,5-a]pyridin-2-yl]-cyclopropanecarboxylic acid methylamide], the IC50 was under 0.5 µM. `CCNC(=O)C1(c2nc3c(OC)ccc(-c4ccc(C#N)cc4)n3n2)CC1` [Compound 211, 1-[5-(4-Cyano-phenyl)-8-methoxy-[1,2,4]triazolo[1,5-a]pyridin-2-yl]-cyclopropanecarboxylic acid ethylamide]: the IC50 is under 0.5 µM. `CCCNC(=O)C1(c2nc3c(OC)ccc(-c4ccc(C#N)cc4)n3n2)CC1` [Compound 212, 1-[5-(4-Cyano-phenyl)-8-methoxy-[1,2,4]triazolo[1,5-a]pyridin-2-yl]-cyclopropanecarboxylic acid propylamide]: the IC50 is under 0.5 µM. For the compound `COc1ccc(-c2ccc(C#N)cc2)n2nc(C3(C(=O)NC4CC4)CC3)nc12` [Compound 213, 1-[5-(4-Cyano-phenyl)-8-methoxy-[1,2,4]triazolo[1,5-a]pyridin-2-yl]-cyclopropanecarboxylic acid cyclopropylamide], the IC50 is under 0.5 µM. With `COc1ccc(-c2ccc(C#N)cc2)n2nc(C3(C(=O)NCC(C)C)CC3)nc12` [Compound 214, 1-[5-(4-Cyano-phenyl)-8-methoxy-[1,2,4]triazolo[1,5-a]pyridin-2-yl]-cyclopropanecarboxylic acid isobutyl-amide] the figure was under 0.5 µM; with `COc1ccc(-c2ccc(C#N)cc2)n2nc(C3(C(=O)NCC#N)CC3)nc12` [Compound 215, 1-[5-(4-Cyano-phenyl)-8-methoxy-[1,2,4]triazolo[1,5-a]pyridin-2-yl]-cyclopropanecarboxylic acid cyanomethyl-amide], under 0.5 µM; with `COc1ccc(-c2ccc(C#N)cc2)n2nc(C3(C(=O)NCCNC(C)=O)CC3)nc12` [Compound 216, 1-[5-(4-Cyano-phenyl)-8-methoxy-[1,2,4]triazolo[1,5-a]pyridin-2-yl]-cyclopropanecarboxylic acid (2-acetylamino-ethyl)-amide], under 0.5 µM.

On to `COc1ccc(-c2ccc(C#N)cc2)n2nc(C3(C(=O)NCCNS(C)(=O)=O)CC3)nc12` [Compound 217, 1-[5-(4-Cyano-phenyl)-8-methoxy-[1,2,4]triazolo[1,5-a]pyridin-2-yl]-cyclopropanecarboxylic acid (2-methanesulfonylamino-ethyl)-amide], for which the IC50 was under 0.5 µM.

With `COc1ccc(-c2ccc(C#N)cc2)n2nc(C3(C(=O)NCCC(=O)N4CCOCC4)CC3)nc12` [Compound 218, 1-[5-(4-Cyano-phenyl)-8-methoxy-[1,2,4]triazolo[1,5-a]pyridin-2-yl]-cyclopropanecarboxylic acid (3-morpholin-4-yl-3-oxo-propyl)-amide], the IC50 is under 0.5 µM.

Turning to `COc1ccc(-c2ccc(C#N)cc2)n2nc(C3(C(=O)NCCS(=O)(=O)N(C)C)CC3)nc12` [Compound 219, 1-[5-(4-Cyano-phenyl)-8-methoxy-[1,2,4]triazolo[1,5-a]pyridin-2-yl]-cyclopropanecarboxylic acid (2-dimethylsulfamoyl-ethyl)-amide], the IC50 is under 0.5 µM.
